# Where two headings read alike, the source gives them in different places.
# Legend:
# MAPKAP-K2 = target: T1, MAPKAP-K2 (Homo sapiens, UniProt P49137); test: MAPKAP-K2 protein kinase assay; type: biochemical; details: for remaining activity at 1 µM: 1 μM compound; for remaining activity at 10 µM: 10 μM compound; for residual kinase activity MAPKAP-K2: 1 μm compound
# T1 construct: All protein kinases were of human origin and encoded full length proteins, unless indicated otherwise; made in house
# Text: (§1) All protein kinases were of human origin and encoded full length proteins, unless indicated otherwise. They were either expressed as glutathione S-transferase (GST) fusion proteins in Escherichia Coli or as hexahistidine (His6)-tagged proteins in insect Sf21 cells. GST fusion proteins were purified by affinity chromatography on glutathione-Sepharose, and His6-tagged proteins on nickel/nitriloacetate-agarose. The procedures for expressing some of the protein kinases used herein have been detailed previously.^8,9 The following sections outline the DNA vectors synthesised and the procedures used to express and purifying protein kinases that have not been reported previously.
# (§2) All assays (25.5 μl) were carried out at room temperature (21° C.) and were linear with respect to time and enzyme concentration under the conditions used. Assays were performed for 30 min using Multidrop Micro reagent dispensers (Thermo Electron Corporation, Waltham, Mass. 02454, USA) in a 96-well format. The concentration of magnesium acetate in the assays was 10 mM and the [γ-33P] ATP (800 cpm/pmol) was used at 5, 20 or 50 μM as indicated, in order to be at or below the Km for ATP for each enzyme. Protein kinases assayed at 5 μM ATP were: —ERK1, ERK8, PKBα, MARK3, Aurora C. Protein kinases assayed at 20 μM ATP were: —JNK1, PDK1, CHK1, CHK2, CDK2 and Aurora B. Protein kinases assayed at 50 μM ATP were: —MNK2, IKKepsilon and TBK1.
# (§3) The assays were initiated with MgATP, stopped by addition of 5 μl of 0.5 M orthophosphoric acid and spotted on to P81 filterplates using a unifilter harvester (PerkinElmer, Boston, Mass. 02118, USA). The IC50 values of inhibitors were determined after carrying out assays at 10 different concentrations of each compound.
# (§4) Unless stated otherwise, enzymes were diluted in 50 mM Tris/HCl pH 7.5, 0.1 mM EGTA, 1 mg/ml BSA, 0.1% (v/v) 2-mercaptoethanol and assayed in 50 mM Tris/HCl pH 7.5, 0.1 mM EGTA, 0.1% (v/v) 2-mercaptoethanol.
# PLK1 (Okadaic Acid) = target: T2, PLK1 (Okadaic Acid) (Homo sapiens, UniProt P53350); test: PLK1 (Okadaic Acid) protein kinase assay; type: biochemical; details: for remaining activity at 1 µM: 1 μM compound; for remaining activity at 10 µM: 10 μM compound; for residual kinase activity PLK1 (Okadaic Acid): 1 μm compound
# T2 construct: All protein kinases were of human origin and encoded full length proteins, unless indicated otherwise; made in house; host or cells: probably Sf21 insect cells treated with okadaic acid (inferred from the row name; the text says this only of Aurora B and C)
# Text: as §1, §2, §3, §4
# CDK2-Cyclin A = target: T3, CDK2-Cyclin A (Homo sapiens, UniProt P24941); test: CDK2-Cyclin A protein kinase assay; type: biochemical; details: for remaining activity at 1 µM: 1 μM compound; for remaining activity at 10 µM: 10 μM compound; for residual kinase activity CDK2-Cyclin A: 1 μm compound
# T3 construct: All protein kinases were of human origin and encoded full length proteins, unless indicated otherwise; GST (cleaved yes); made in house; host or cells: E. coli
# Text: as §1
# The following proteins were expressed in E. coli: —CHK2[5-543], cyclin-dependent protein kinase 2 (CDK2), MAP kinase-interacting kinase 2 (MNK2), extra-cellular signal-regulated kinase 1 (ERK1).
# In order to produce activated forms of Aurora B and Aurora C, insect Sf21 cells were incubated for 1 h with the protein phosphatase inhibitor okadaic acid (50 nM). JNK isoforms were activated with MKK4 and MKK7, MNK2 with p38α MAPkinase; PKBα, PKBβ, with PDK1, and ERK1 with MKK1. To activate CDK2, bacterial pellets expressing cyclin A2 and CDK2 were mixed together, lyse and purified on glutathione Sepharose. The GST-tags were removed by cleavage with PreScission protease and the CDK2-cyclin A2 complex purified by chromatography on SP-Sepharose. It was then activated with CAK1/CDK7 followed by chromatography on nickel-nitrilotriacetate agarose to remove CAK1/CDK7, which binds to this column by virtue of its C-terminal His6 tag. All the other protein kinases were active as expressed.
# as §2, §3, §4
# DYRK1A = target: T4, DYRK1A (Homo sapiens, UniProt Q13627); test: DYRK1A protein kinase assay; type: biochemical; details: for remaining activity at 1 µM: 1 μM compound; for remaining activity at 10 µM: 10 μM compound; for residual kinase activity DYRK1A: 1 μm compound
# T4 construct: All protein kinases were of human origin and encoded full length proteins, unless indicated otherwise; made in house
# Text: as §1, §2, §3, §4
# ROCK 2 = ROCK 2 protein kinase assay; type: biochemical, human; details: for residual kinase activity: ROCK 2
# Text: as §1, §2, §3, §4
# Lck = target: T5, Lck (Homo sapiens, UniProt P06239); test: Lck protein kinase assay; type: biochemical; details: for remaining activity at 1 µM: 1 μM compound; for remaining activity at 10 µM: 10 μM compound; for residual kinase activity Lck: 1 μm compound
# T5 construct: All protein kinases were of human origin and encoded full length proteins, unless indicated otherwise; made in house
# Text: as §1, §2, §3, §4
# SmMLCK = SmMLCK protein kinase assay; type: biochemical, human; details: for residual kinase activity: SmMLCK
# Text: as §1, §2, §3, §4
# ERK2 = target: T6, ERK2 (Homo sapiens, UniProt P28482); test: ERK2 protein kinase assay; type: biochemical; details: for remaining activity at 1 µM: 1 μM compound; for remaining activity at 10 µM: 10 μM compound; for residual kinase activity ERK2: 1 μm compound
# T6 construct: All protein kinases were of human origin and encoded full length proteins, unless indicated otherwise; made in house
# Text: as §1, §2, §3, §4
# MNK1 = target: T7, MNK1 (Homo sapiens, UniProt Q9BUB5); test: MNK1 protein kinase assay; type: biochemical; details: for remaining activity at 1 µM: 1 μM compound; for remaining activity at 10 µM: 10 μM compound; for residual kinase activity MNK1: 1 μm compound
# T7 construct: All protein kinases were of human origin and encoded full length proteins, unless indicated otherwise; made in house
# Text: as §1, §2, §3, §4
# AMPK = AMPK protein kinase assay; type: biochemical, human; details: for residual kinase activity: AMPK
# Text: as §1, §2, §3, §4
# YES1 = target: T8, YES1 (Homo sapiens, UniProt P07947); test: YES1 protein kinase assay; type: biochemical; details: for remaining activity at 1 µM: 1 μM compound; for remaining activity at 10 µM: 10 μM compound; for residual kinase activity YES1: 1 μm compound
# T8 construct: All protein kinases were of human origin and encoded full length proteins, unless indicated otherwise; made in house
# Text: as §1, §2, §3, §4
# CK1 = CK1 protein kinase assay; type: biochemical, human; details: for residual kinase activity: CK1
# Text: as §1, §2, §3, §4
# [1] = MAPKAP-K2, read-out: residual kinase activity
# [2] = PLK1 (Okadaic Acid), read-out: residual kinase activity
# [3] = CDK2-Cyclin A, 20 μM ATP, read-out: residual kinase activity
# [4] = DYRK1A, read-out: residual kinase activity
# [5] = Lck, read-out: residual kinase activity
# [6] = ERK2, read-out: residual kinase activity
# [7] = MNK1, read-out: residual kinase activity
# [8] = YES1, read-out: residual kinase activity
# [9] = read-out: residual kinase activity MAPKAP-K2
# [10] = read-out: residual kinase activity PLK1 (Okadaic Acid)
# [11] = read-out: residual kinase activity CDK2-Cyclin A
# [12] = read-out: residual kinase activity DYRK1A
# [13] = read-out: residual kinase activity Lck
# [14] = read-out: residual kinase activity ERK2
# [15] = read-out: residual kinase activity MNK1
# [16] = read-out: residual kinase activity YES1
# T6 sequence (P28482 2-360): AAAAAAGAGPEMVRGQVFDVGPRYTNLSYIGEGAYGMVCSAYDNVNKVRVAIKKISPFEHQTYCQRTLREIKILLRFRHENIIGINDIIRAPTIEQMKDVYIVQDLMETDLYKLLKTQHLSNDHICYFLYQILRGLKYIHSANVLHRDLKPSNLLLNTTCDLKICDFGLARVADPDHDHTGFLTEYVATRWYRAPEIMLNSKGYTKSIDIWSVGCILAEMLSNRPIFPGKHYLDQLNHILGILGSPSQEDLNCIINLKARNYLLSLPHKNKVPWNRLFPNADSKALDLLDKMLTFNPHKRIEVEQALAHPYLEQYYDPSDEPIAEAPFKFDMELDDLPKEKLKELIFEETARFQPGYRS
# T2 sequence (P53350 whole entry): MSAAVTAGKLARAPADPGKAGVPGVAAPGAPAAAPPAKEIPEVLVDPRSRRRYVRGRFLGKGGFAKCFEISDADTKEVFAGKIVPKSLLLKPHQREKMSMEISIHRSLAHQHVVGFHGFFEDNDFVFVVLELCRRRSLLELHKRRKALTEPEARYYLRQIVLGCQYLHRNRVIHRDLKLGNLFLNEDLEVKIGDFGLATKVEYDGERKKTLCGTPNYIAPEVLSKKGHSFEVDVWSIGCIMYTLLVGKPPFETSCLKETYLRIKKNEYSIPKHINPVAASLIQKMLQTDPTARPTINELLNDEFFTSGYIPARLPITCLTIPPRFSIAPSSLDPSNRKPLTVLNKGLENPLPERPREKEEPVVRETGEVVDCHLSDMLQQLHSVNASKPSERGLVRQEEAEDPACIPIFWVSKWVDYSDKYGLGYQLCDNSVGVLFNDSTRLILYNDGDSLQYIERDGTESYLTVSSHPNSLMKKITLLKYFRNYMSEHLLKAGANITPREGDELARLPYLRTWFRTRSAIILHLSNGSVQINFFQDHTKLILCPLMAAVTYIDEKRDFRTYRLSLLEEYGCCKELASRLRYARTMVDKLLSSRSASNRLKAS
# T5 sequence (P06239 whole entry): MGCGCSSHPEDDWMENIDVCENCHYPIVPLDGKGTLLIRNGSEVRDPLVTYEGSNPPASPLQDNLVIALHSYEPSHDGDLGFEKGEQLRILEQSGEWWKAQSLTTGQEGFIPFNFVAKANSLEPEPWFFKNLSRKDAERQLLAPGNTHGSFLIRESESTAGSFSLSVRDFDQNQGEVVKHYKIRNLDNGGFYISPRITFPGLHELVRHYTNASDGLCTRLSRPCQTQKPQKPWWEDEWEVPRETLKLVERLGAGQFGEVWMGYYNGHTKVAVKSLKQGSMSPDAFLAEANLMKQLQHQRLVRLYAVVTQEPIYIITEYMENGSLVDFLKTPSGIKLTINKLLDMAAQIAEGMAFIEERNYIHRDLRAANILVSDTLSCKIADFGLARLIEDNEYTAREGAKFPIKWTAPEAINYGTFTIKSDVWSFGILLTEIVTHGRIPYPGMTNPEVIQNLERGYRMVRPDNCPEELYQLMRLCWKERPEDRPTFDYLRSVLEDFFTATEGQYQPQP
# T8 sequence (P07947 whole entry): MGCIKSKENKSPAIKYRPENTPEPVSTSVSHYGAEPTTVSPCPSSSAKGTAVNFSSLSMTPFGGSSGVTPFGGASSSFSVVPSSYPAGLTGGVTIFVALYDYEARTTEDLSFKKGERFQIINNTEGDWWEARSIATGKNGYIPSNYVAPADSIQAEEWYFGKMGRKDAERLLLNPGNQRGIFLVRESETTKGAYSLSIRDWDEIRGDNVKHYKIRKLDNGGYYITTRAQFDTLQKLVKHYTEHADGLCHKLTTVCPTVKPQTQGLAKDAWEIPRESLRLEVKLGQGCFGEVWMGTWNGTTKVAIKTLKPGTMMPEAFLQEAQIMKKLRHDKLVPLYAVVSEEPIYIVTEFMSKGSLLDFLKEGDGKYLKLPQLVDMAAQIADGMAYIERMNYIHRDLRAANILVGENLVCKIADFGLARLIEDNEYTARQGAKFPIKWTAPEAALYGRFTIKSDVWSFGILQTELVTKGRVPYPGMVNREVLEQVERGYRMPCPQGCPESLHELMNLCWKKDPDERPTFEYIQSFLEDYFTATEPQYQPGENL
# T7 sequence (Q9BUB5 whole entry): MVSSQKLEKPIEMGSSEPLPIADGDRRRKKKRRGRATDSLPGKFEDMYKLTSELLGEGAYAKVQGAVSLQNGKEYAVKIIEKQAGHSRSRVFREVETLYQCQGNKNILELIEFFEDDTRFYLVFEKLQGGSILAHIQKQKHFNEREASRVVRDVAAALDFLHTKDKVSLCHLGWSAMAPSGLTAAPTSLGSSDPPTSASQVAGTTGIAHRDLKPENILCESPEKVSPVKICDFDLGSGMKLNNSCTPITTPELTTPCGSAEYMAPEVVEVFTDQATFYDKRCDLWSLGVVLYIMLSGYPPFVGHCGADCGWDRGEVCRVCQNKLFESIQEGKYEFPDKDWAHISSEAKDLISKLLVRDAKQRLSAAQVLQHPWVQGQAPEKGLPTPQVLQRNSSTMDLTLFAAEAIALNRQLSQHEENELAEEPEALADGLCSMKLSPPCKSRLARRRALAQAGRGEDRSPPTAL
# T1 sequence (P49137 46-400 limits assumed): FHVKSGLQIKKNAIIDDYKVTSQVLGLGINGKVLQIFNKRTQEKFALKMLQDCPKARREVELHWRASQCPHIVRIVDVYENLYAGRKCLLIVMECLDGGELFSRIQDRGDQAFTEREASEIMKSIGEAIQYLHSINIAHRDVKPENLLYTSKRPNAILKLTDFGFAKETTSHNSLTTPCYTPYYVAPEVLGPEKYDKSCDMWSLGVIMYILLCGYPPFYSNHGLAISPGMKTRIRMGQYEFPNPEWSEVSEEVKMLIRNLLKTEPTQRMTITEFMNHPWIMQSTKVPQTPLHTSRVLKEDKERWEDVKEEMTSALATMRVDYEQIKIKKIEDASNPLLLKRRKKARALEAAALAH
structure (smiles),measurement,setting,value
"O=C(NCCCNc1nc(Nc2cccnc2)ncc1C1CC1)c1cccs1 [Example 50, Thiophene-2-carboxylic acid {3-[5-cyclopropyl-2-(pyridin-3-ylamino)-pyrimidin-4-ylamino]-propyl}-amide]",remaining activity at 1 µM,MAPKAP-K2; [1],88%
same,remaining activity at 10 µM,MAPKAP-K2; [1],85%
same,remaining activity at 1 µM,PLK1 (Okadaic Acid); [2],82%
same,remaining activity at 10 µM,PLK1 (Okadaic Acid); [2],60%
same,remaining activity at 1 µM,CDK2-Cyclin A; [3],33%
same,remaining activity at 10 µM,CDK2-Cyclin A; [3],5%
same,remaining activity at 1 µM,DYRK1A; [4],88%
same,remaining activity at 10 µM,DYRK1A; [4],57%
same,residual kinase activity,ROCK 2; 1 μM compound,77%
same,residual kinase activity,ROCK 2; 10 μM compound,51%
same,remaining activity at 1 µM,Lck; [5],91%
same,remaining activity at 10 µM,Lck; [5],50%
same,residual kinase activity,SmMLCK; 1 μM compound,88%
same,residual kinase activity,SmMLCK; 10 μM compound,75%
same,remaining activity at 1 µM,ERK2; [6],106%
same,remaining activity at 10 µM,ERK2; [6],62%
same,remaining activity at 1 µM,MNK1; [7],94%
same,remaining activity at 10 µM,MNK1; [7],81%
same,residual kinase activity,AMPK; 1 μM compound,76%
same,residual kinase activity,AMPK; 10 μM compound,38%
same,remaining activity at 1 µM,YES1; [8],82%
same,remaining activity at 10 µM,YES1; [8],29%
same,residual kinase activity,CK1; 1 μM compound,107%
same,residual kinase activity,CK1; 10 μM compound,82%
"O=C(NCCCNc1nc(Nc2cccc(F)c2)ncc1Br)C1CCC1 [Compound A, cyclobutanecarboxylic acid {3-[5-bromo-2-(3-fluoro-phenylamino)-pyrimidin-4-ylamino]-propyl}-amide, reference compound]",remaining activity at 10 µM,MAPKAP-K2; [9],48%
same,residual kinase activity MAPKAP-K2,MAPKAP-K2,82%
same,remaining activity at 10 µM,PLK1 (Okadaic Acid); [10],39%
same,residual kinase activity PLK1 (Okadaic Acid),PLK1 (Okadaic Acid),95%
same,remaining activity at 10 µM,CDK2-Cyclin A; [11],0%
same,residual kinase activity CDK2-Cyclin A,CDK2-Cyclin A,1%
same,remaining activity at 10 µM,DYRK1A; [12],38%
same,residual kinase activity DYRK1A,DYRK1A,74%
same,residual kinase activity ROCK 2,ROCK 2; 10 μM compound,11%
same,residual kinase activity ROCK 2,ROCK 2; 1 μm compound,33%
same,remaining activity at 10 µM,Lck; [13],10%
same,residual kinase activity Lck,Lck,57%
same,residual kinase activity SmMLCK,SmMLCK; 10 μM compound,59%
same,residual kinase activity SmMLCK,SmMLCK; 1 μm compound,101%
same,remaining activity at 10 µM,ERK2; [14],10%
same,residual kinase activity ERK2,ERK2,49%
same,remaining activity at 10 µM,MNK1; [15],15%
same,residual kinase activity MNK1,MNK1,49%
same,residual kinase activity AMPK,AMPK; 10 μM compound,2%
same,residual kinase activity AMPK,AMPK; 1 μm compound,4%
same,remaining activity at 10 µM,YES1; [16],8%
same,residual kinase activity YES1,YES1,36%
same,residual kinase activity CK1,CK1; 10 μM compound,50%
same,residual kinase activity CK1,CK1; 1 μm compound,91%
"O=C(NCCCNc1nc(Nc2cccc(F)c2)ncc1C1CC1)C1CCC1 [Example 23, Cyclobutanecarboxylic acid {3-[5-cyclopropyl-2-(3-fluoro-phenylamino)-pyrimidin-4-ylamino]-propyl}-amide]",remaining activity at 10 µM,MAPKAP-K2; [9],86%
same,residual kinase activity MAPKAP-K2,MAPKAP-K2,77%
same,remaining activity at 1 µM,MAPKAP-K2; [1],77%
same,remaining activity at 10 µM,MAPKAP-K2; [1],86%
same,remaining activity at 10 µM,PLK1 (Okadaic Acid); [10],46%
same,residual kinase activity PLK1 (Okadaic Acid),PLK1 (Okadaic Acid),66%
same,remaining activity at 1 µM,PLK1 (Okadaic Acid); [2],66%
same,remaining activity at 10 µM,PLK1 (Okadaic Acid); [2],46%
same,remaining activity at 10 µM,CDK2-Cyclin A; [11],2%
same,residual kinase activity CDK2-Cyclin A,CDK2-Cyclin A,17%
same,remaining activity at 1 µM,CDK2-Cyclin A; [3],17%
same,remaining activity at 10 µM,CDK2-Cyclin A; [3],2%
same,remaining activity at 10 µM,DYRK1A; [12],56%
same,residual kinase activity DYRK1A,DYRK1A,78%
same,remaining activity at 1 µM,DYRK1A; [4],78%
same,remaining activity at 10 µM,DYRK1A; [4],56%
same,residual kinase activity ROCK 2,ROCK 2; 10 μM compound,40%
same,residual kinase activity ROCK 2,ROCK 2; 1 μm compound,77%
same,residual kinase activity,ROCK 2; 1 μM compound,77%
same,residual kinase activity,ROCK 2; 10 μM compound,40%
same,remaining activity at 10 µM,Lck; [13],37%
same,residual kinase activity Lck,Lck,86%
same,remaining activity at 1 µM,Lck; [5],86%
same,remaining activity at 10 µM,Lck; [5],37%
same,residual kinase activity SmMLCK,SmMLCK; 10 μM compound,74%
same,residual kinase activity SmMLCK,SmMLCK; 1 μm compound,72%
same,residual kinase activity,SmMLCK; 1 μM compound,72%
same,residual kinase activity,SmMLCK; 10 μM compound,74%
same,remaining activity at 10 µM,ERK2; [14],108%
same,residual kinase activity ERK2,ERK2,107%
same,remaining activity at 1 µM,ERK2; [6],107%
same,remaining activity at 10 µM,ERK2; [6],108%
same,remaining activity at 10 µM,MNK1; [15],62%
same,residual kinase activity MNK1,MNK1,85%
same,remaining activity at 1 µM,MNK1; [7],85%
same,remaining activity at 10 µM,MNK1; [7],62%
same,residual kinase activity AMPK,AMPK; 10 μM compound,8%
same,residual kinase activity AMPK,AMPK; 1 μm compound,45%
same,residual kinase activity,AMPK; 1 μM compound,45%
same,residual kinase activity,AMPK; 10 μM compound,8%
same,remaining activity at 10 µM,YES1; [16],22%
same,residual kinase activity YES1,YES1,77%
same,remaining activity at 1 µM,YES1; [8],77%
same,remaining activity at 10 µM,YES1; [8],22%
same,residual kinase activity CK1,CK1; 10 μM compound,64%
same,residual kinase activity CK1,CK1; 1 μm compound,93%
same,residual kinase activity,CK1; 1 μM compound,93%
same,residual kinase activity,CK1; 10 μM compound,64%

# Reference: patent publication US20100056524A1, “Compound” (priority 2008, published 2010)
